The conditions of the data set: for aqueous solubility: pH 6.8.

SMILES strings stand for the structures. ≈ marks a conversion by molar mass, not a printed value.

Compound `CC(=O)N1CCC(c2ccc(C(=O)O)cn2)CC1` gave an intrinsic clearance, human liver microsomes not above 4.74 mL/min/kg; an intrinsic clearance, rat liver microsomes not above 10.7 mL/min/kg; an aqueous solubility of 50.6 µg/mL (≈ 204 µM).
Turning to `Cn1cc(NC(=O)c2ccccc2C(F)(F)F)cn1`, the MDR1-MDCK efflux ratio worked out at 0.828; the intrinsic clearance, human liver microsomes was not above 4.74 mL/min/kg; the intrinsic clearance, rat liver microsomes is not above 10.7 mL/min/kg; the aqueous solubility amounted to 37.7 µg/mL (≈ 140 µM).
For `COc1cccc(CNC(=O)C2(C#N)CCOCC2)c1`, the intrinsic clearance, human liver microsomes was not above 4.74 mL/min/kg and the intrinsic clearance, rat liver microsomes was 75.9 mL/min/kg.
For the compound `CCC(CC)N1CC[C@H](O)[C@@](O)(COc2cc(C)ccc2Cl)C1`, the MDR1-MDCK efflux ratio was 1.18; the intrinsic clearance, human liver microsomes came out at 371 mL/min/kg; the intrinsic clearance, rat liver microsomes worked out at 4650 mL/min/kg.
For `CCc1[nH]nc(NC2CCN(C(C)C)CC2)c1C`, in that order: 13.7, not above 4.74 mL/min/kg and 163 mL/min/kg.
The matching figures for `CCN1CCN(C(=O)CNc2ncnc3onc(C)c23)CC1`: 3.68, not above 4.74 mL/min/kg and not above 10.7 mL/min/kg.
Consider `CC(C)CCn1ccc(NC2CCN(C(C)C)CC2)n1`, for which the MDR1-MDCK efflux ratio amounted to 3.58; the intrinsic clearance, human liver microsomes is not above 4.74 mL/min/kg; the intrinsic clearance, rat liver microsomes came out at 152 mL/min/kg.
Regarding `CCOc1ccc(Nc2ncccc2C#N)cc1`, the intrinsic clearance, human liver microsomes was found to be 99.6 mL/min/kg; the intrinsic clearance, rat liver microsomes came to 319 mL/min/kg; the aqueous solubility came out at 9.23 µg/mL (≈ 38.6 µM).
`Cc1cc(NC(=O)Cn2nc(C3CC3)ccc2=O)ccc1Cl`: the MDR1-MDCK efflux ratio was determined as 0.894 and the aqueous solubility came out at 0.86 µg/mL (≈ 2.71 µM).
For `COc1ccc(CCCN2CCN(c3cnn(C)c3)C(=O)C2)cc1F`, the MDR1-MDCK efflux ratio was 0.734; the fraction unbound, human plasma came to 0.221; the fraction unbound, rat plasma came to 0.203; the intrinsic clearance, human liver microsomes was not above 4.74 mL/min/kg. The same compound returned an intrinsic clearance, rat liver microsomes of 44.1 mL/min/kg.
Regarding `Cc1ccc(C(=O)O)cc1NS(=O)(=O)c1csc(C(=O)Nc2ccccc2)c1`, the MDR1-MDCK efflux ratio was 0.879; the intrinsic clearance, human liver microsomes was not above 4.74 mL/min/kg; the intrinsic clearance, rat liver microsomes was not above 10.7 mL/min/kg; the aqueous solubility is 61.5 µg/mL (≈ 148 µM).
With `CC(C)c1ccc2occ(CC(=O)O)c2c1`, the intrinsic clearance, human liver microsomes is not above 4.74 mL/min/kg and the intrinsic clearance, rat liver microsomes was not above 10.7 mL/min/kg.
Regarding `Cc1ccc(CNC(=O)CN2CCC(n3nnc4cc(C(F)(F)F)ccc43)CC2)cc1`, the intrinsic clearance, human liver microsomes turned out to be 41.4 mL/min/kg; the intrinsic clearance, rat liver microsomes stood at 168 mL/min/kg; the aqueous solubility was 11.5 µg/mL (≈ 26.6 µM).
On to `Cc1ccccc1N(CC(=O)O)S(C)(=O)=O`, for which the aqueous solubility came to 44.7 µg/mL (≈ 184 µM).
On to `COc1ccc(COc2ccc(Cc3cnc(N)nc3N)cc2OC)cc1`, for which the MDR1-MDCK efflux ratio amounted to 11; the intrinsic clearance, human liver microsomes stood at 13.3 mL/min/kg; the intrinsic clearance, rat liver microsomes stood at 249 mL/min/kg.
Turning to `COc1cc2nn(CCC(C)(C)O)cc2cc1NC(=O)c1ccn(C(F)F)n1`, the MDR1-MDCK efflux ratio is 10.2; the intrinsic clearance, human liver microsomes came to 18.7 mL/min/kg; the intrinsic clearance, rat liver microsomes is not above 10.7 mL/min/kg.
Consider `CCS(=O)(=O)Nc1ccc(Oc2ccc(F)cc2F)c(-c2cn(C)c(=O)c3[nH]ccc23)c1`, for which the MDR1-MDCK efflux ratio worked out at 51.2; the intrinsic clearance, human liver microsomes is not above 4.74 mL/min/kg; the intrinsic clearance, rat liver microsomes came out at 14.9 mL/min/kg; the aqueous solubility amounted to 16.9 µg/mL (≈ 36.7 µM).
For `Cc1ccc(C(=O)NC2CCN(CC#N)CC2)cc1Br`, in that order: 0.9, not above 4.74 mL/min/kg, 97.6 mL/min/kg and 2.04 µg/mL (≈ 6.07 µM).
Take `O=C1c2cccc3cccc(c23)C(=O)N1CCN1CCOCC1`: the MDR1-MDCK efflux ratio came to 0.595; the intrinsic clearance, human liver microsomes turned out to be 12.1 mL/min/kg; the intrinsic clearance, rat liver microsomes amounted to 424 mL/min/kg; the aqueous solubility was found to be 36.9 µg/mL (≈ 119 µM).
The matching figures for `COCCc1nc(-c2cnc(C3CC3)nc2)n(Cc2ccc(F)cc2)n1`: 1.51, 8.05 mL/min/kg, 1030 mL/min/kg and 34.1 µg/mL (≈ 96.4 µM).
Turning to `Cc1nc(CN2C[C@@H](c3ccc4c(c3)OCO4)[C@@H]3[C@H]2C2CCN3CC2)co1`, the MDR1-MDCK efflux ratio stood at 53.4; the intrinsic clearance, human liver microsomes came to 96.7 mL/min/kg; the intrinsic clearance, rat liver microsomes stood at 205 mL/min/kg; the aqueous solubility was 48.3 µg/mL (≈ 131 µM).
The matching figures for `O=C(c1cc(-c2cccc(Cl)c2)on1)N1CCC(n2cccc2)CC1`: 0.698, 15.4 mL/min/kg, 274 mL/min/kg and 10.5 µg/mL (≈ 29.4 µM).
Regarding `CCCn1ncc2[nH]c(C3CCCCC3)nc21`, the MDR1-MDCK efflux ratio is 1.26; the intrinsic clearance, human liver microsomes amounted to 19.9 mL/min/kg; the intrinsic clearance, rat liver microsomes came out at 83.7 mL/min/kg; the aqueous solubility stood at 22.4 µg/mL (≈ 96.5 µM).
On to `CCN1CCc2c(sc(NC(=O)CS(=O)(=O)c3ccccc3)c2-c2nc3ccccc3s2)C1`, for which the intrinsic clearance, human liver microsomes turned out to be 71.6 mL/min/kg and the intrinsic clearance, rat liver microsomes came out at 435 mL/min/kg.
As to `O=C(NCCc1ccc2c(c1)OCO2)C1CCCC1`, the MDR1-MDCK efflux ratio came to 0.69; the intrinsic clearance, human liver microsomes was 27.6 mL/min/kg; the intrinsic clearance, rat liver microsomes turned out to be 600 mL/min/kg; the aqueous solubility was determined as 42.1 µg/mL (≈ 161 µM).
For the compound `CCC(=O)Nc1cccc(C(=O)N2CCN(C)Cc3ccccc32)c1`, the MDR1-MDCK efflux ratio worked out at 41.5 and the aqueous solubility was determined as 0.2 µg/mL (≈ 0.593 µM).
Consider `COc1ccc(C)cc1-c1cccnc1O`, for which the MDR1-MDCK efflux ratio turned out to be 1.08; the intrinsic clearance, human liver microsomes was 5.37 mL/min/kg; the intrinsic clearance, rat liver microsomes turned out to be 26.5 mL/min/kg; the aqueous solubility came out at 32.8 µg/mL (≈ 152 µM).
For `Cc1nn(-c2ccc(C(=O)O)cc2C#Cc2ccccc2)c(C)c1C`, in that order: 3.82, not above 4.74 mL/min/kg, 595 mL/min/kg and 46.4 µg/mL (≈ 140 µM).
For `COc1ccc(-c2nc(C3CCN(C(=O)c4sc(C)nc4C)CC3)[nH]c2C(N)=O)cc1`, in that order: 42.1, not above 4.74 mL/min/kg, 39.4 mL/min/kg and 61.8 µg/mL (≈ 141 µM).
The matching figures for `O=C(O)c1ccc(N2CCCC2)c(F)c1`: 0.865, not above 4.74 mL/min/kg, 14.4 mL/min/kg and 27.3 µg/mL (≈ 130 µM).
As to `COc1cc(Nc2cc(-c3cccc(C#N)c3)ccn2)ccc1N1CCN(C)CC1`, the MDR1-MDCK efflux ratio is 3.85; the intrinsic clearance, human liver microsomes stood at 5.88 mL/min/kg; the intrinsic clearance, rat liver microsomes came out at 198 mL/min/kg; the aqueous solubility was 45.8 µg/mL (≈ 115 µM).
Take `CC(C)(C)C[C@@H]1COCc2nc(OCc3ccccn3)cc(=O)n21`: the aqueous solubility was 62.1 µg/mL (≈ 189 µM).
Take `O=C(NCCc1ccccc1)c1cnccn1`: the MDR1-MDCK efflux ratio was 0.607; the intrinsic clearance, human liver microsomes turned out to be 13.5 mL/min/kg; the intrinsic clearance, rat liver microsomes was 29 mL/min/kg; the aqueous solubility was 59.1 µg/mL (≈ 260 µM).
For `Cc1ccncc1-c1ccc(-c2ccn[nH]2)cc1`, in that order: 0.59, 10.5 mL/min/kg, 65.8 mL/min/kg and 20.5 µg/mL (≈ 87 µM).
For the compound `Cc1cc(Nc2ccc(F)cn2)cc(C2CCN(C(=O)CCn3ncc4ccccc43)C2)n1` (configuration not stated), the MDR1-MDCK efflux ratio came out at 60; the intrinsic clearance, human liver microsomes is 345 mL/min/kg; the intrinsic clearance, rat liver microsomes was found to be 2300 mL/min/kg.
`CNCCN1CCC(OCc2ccccc2)CC1` returned an intrinsic clearance, human liver microsomes of 46.5 mL/min/kg; an intrinsic clearance, rat liver microsomes of 143 mL/min/kg; an aqueous solubility of 55 µg/mL (≈ 222 µM).
For `Cc1cc(F)ccc1NC(=O)Cn1cncn1`, in that order: not above 4.74 mL/min/kg, not above 10.7 mL/min/kg and 35.1 µg/mL (≈ 150 µM).
Turning to `N#Cc1cc(-c2n[nH]c(-c3ccncc3)n2)ccn1`, the MDR1-MDCK efflux ratio was found to be 4.87; the intrinsic clearance, human liver microsomes is 8.89 mL/min/kg; the intrinsic clearance, rat liver microsomes was determined as 129 mL/min/kg; the aqueous solubility amounted to 14.3 µg/mL (≈ 57.5 µM).
Consider `Cc1nc(CN2CCC(CNC(=O)COc3ccccc3Cl)CC2)c[nH]1`, for which the MDR1-MDCK efflux ratio was 5.32; the intrinsic clearance, human liver microsomes was not above 4.74 mL/min/kg; the intrinsic clearance, rat liver microsomes stood at 58.1 mL/min/kg.
As for `CC1CCN(CC(=O)Nc2nc(-c3c[nH]c4ccccc34)cs2)CC1`, the MDR1-MDCK efflux ratio came to 0.826; the intrinsic clearance, human liver microsomes stood at 37.9 mL/min/kg; the intrinsic clearance, rat liver microsomes was 315 mL/min/kg; the aqueous solubility is 5.19 µg/mL (≈ 14.6 µM).
The matching figures for `Cc1ccccc1-c1nc(Cn2ccnc2C(C)C)c(C)o1`: 0.732, 310 mL/min/kg, 2720 mL/min/kg and 49 µg/mL (≈ 166 µM).
For `COc1cccc(C(=O)NCC(=O)Nc2cccc3c2CCCC3)c1`, the MDR1-MDCK efflux ratio was 1.3; the intrinsic clearance, human liver microsomes worked out at 57.9 mL/min/kg; the intrinsic clearance, rat liver microsomes was determined as 607 mL/min/kg.
Consider `Cc1cc(CN2CC(O)(CC#N)C2)ccc1F`, for which the MDR1-MDCK efflux ratio is 0.602; the intrinsic clearance, human liver microsomes turned out to be 15 mL/min/kg; the intrinsic clearance, rat liver microsomes was 703 mL/min/kg.
On to `CCN(CC)Cc1ccc2cc(COC(=O)Nc3ccc(C(=O)NO)cc3)ccc2c1`, for which the MDR1-MDCK efflux ratio was determined as 22.6; the intrinsic clearance, human liver microsomes was 7.96 mL/min/kg; the intrinsic clearance, rat liver microsomes turned out to be 227 mL/min/kg; the aqueous solubility was 78 µg/mL (≈ 185 µM).
For `Nc1nc(-c2ccccc2)c(C(=O)Nc2ccc(Cl)c(Cl)c2)s1`, the MDR1-MDCK efflux ratio was found to be 0.643 and the aqueous solubility stood at 0.5 µg/mL (≈ 1.37 µM).
`Cc1nonc1C(=O)NCCc1c[nH]c2cccc(C3(O)CCOCC3)c12` gave an aqueous solubility of 61.2 µg/mL (≈ 165 µM).
For `O=C1NCN(c2ccccc2)C12CCN(CCCOc1ccc(F)cc1)CC2`, the intrinsic clearance, human liver microsomes amounted to 74.3 mL/min/kg; the intrinsic clearance, rat liver microsomes was found to be 548 mL/min/kg; the aqueous solubility came to 50.9 µg/mL (≈ 133 µM).

A word on the aqueous solubility: it is how much of the substance goes into solution per volume. Read a high aqueous solubility as a readily soluble substance.
